Each structure is given as a SMILES string. Counter-ions that a name gives are not always drawn.

One data set concerns the target T1, FAAH (fatty acid amide hydrolase) (Mus musculus, UniProt O08914).
T1 construct: Membrane homogenates are prepared at the time of use by homogenizing the tissues in a Polytron; from tissue; host or cells: mouse brain (minus the cerebellum), membrane homogenate
T1 sequence (O08914 1-579): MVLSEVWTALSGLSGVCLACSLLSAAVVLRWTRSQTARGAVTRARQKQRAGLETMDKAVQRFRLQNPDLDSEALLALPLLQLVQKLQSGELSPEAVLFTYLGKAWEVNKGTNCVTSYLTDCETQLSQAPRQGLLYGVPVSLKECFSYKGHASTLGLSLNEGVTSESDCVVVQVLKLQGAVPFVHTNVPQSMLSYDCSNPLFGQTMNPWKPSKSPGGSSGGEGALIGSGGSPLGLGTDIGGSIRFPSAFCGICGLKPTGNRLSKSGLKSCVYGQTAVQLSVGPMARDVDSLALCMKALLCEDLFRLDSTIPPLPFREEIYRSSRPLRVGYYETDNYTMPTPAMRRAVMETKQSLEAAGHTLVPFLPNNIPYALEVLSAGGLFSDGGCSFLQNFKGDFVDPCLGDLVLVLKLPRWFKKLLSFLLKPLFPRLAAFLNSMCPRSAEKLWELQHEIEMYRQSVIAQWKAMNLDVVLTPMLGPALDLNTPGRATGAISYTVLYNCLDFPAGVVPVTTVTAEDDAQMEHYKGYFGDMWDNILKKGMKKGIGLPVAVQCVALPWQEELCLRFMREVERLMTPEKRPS
Put plainly: radio-enzymatic assay of FAAH inhibition (hydrolysis of anandamide [1-3H ethanolamine]). In kind it is biochemical. The settings on record: mouse brain membrane homogenates; anandamide [1-3H ethanolamine] 10 μM; 15 minutes at 25° C.; read-out: IC50 (concentration inhibiting by 50% the control enzyme activity of FAAH). The protocol: The compounds of the invention were subjected to pharmacological tests permitting determination of their inhibitory effect on the enzyme FAAH (fatty acid amide hydrolase).
Accordingly, mouse brains (minus the cerebellum) are removed and stored at −80° C. Membrane homogenates are prepared at the time of use by homogenizing the tissues in a Polytron in a 10 mM Tris-HCl buffer (pH 8) containing 150 mM NaCl and 1 mM EDTA. The enzyme reaction is subsequently conducted in 70 μl of buffer containing bovine serum albumin without fatty acids (1 mg/ml). In succession, the test compounds, at various concentrations, anandamide [1-^3H ethanolamine] (specific activity: 15-20 Ci/mmol) diluted to 10 μM with cold anandamide, and the membrane preparation (400 μg of frozen tissue per assay) are added. After 15 minutes at 25° C. the enzyme reaction is terminated by adding 140 μl of chloroform/methanol (2:1). The mixture is stirred for 10 minutes and then centrifuged for 15 minutes at 3500 g. An aliquot (30 μl) of the aqueous phase containing the 1-^3H ethanolamine is counted by liquid scintillation.
Consider `CNC(=O)COC(=O)N1CCN(CCc2cccc3ccccc23)CC1` [Compound 21, 2-(methylamino)-2-oxoethyl 4-[2-(1-naphthyl)ethyl]piperazine-1-carboxylate], for which the IC50 stood at 72 nM.

Consider `CNC(=O)COC(=O)N1CCN(CCCc2cccc(-c3ccccc3)c2)CC1` [Compound 48, 2-(methylamino)-2-oxoethyl 4-(3-biphenyl-3-ylpropyl)piperazine-1-carboxylate], for which the IC50 was 50 nM.

Turning to `CNC(=O)COC(=O)N1CCN(CCCc2ccc(-c3ccccc3)cc2)CC1` [Compound 49, 2-(methylamino)-2-oxoethyl 4-(3-biphenyl-4-ylpropyl)piperazine-1-carboxylate], the IC50 is 32 nM.

Another data set relates to male OFI mice. Put plainly: analgesia test: abdominal stretches induced by PBQ (phenylbenzoquinone). The format is in vivo, mouse. The settings on record: dose of 10 mg/kg at 120 minutes, PBQ 2 mg/kg i.p. The protocol: The in vivo activity of the compounds of the invention was evaluated in an analgesia test.
Accordingly, intraperitoneal (i.p.) administration of PBQ (phenylbenzoquinone, 2 mg/kg in a 0.9% sodium chloride solution containing 5% of ethanol) to male OFI mice weighing 25 to 30 g causes abdominal stretches, on average 30 twists or contractions during the period from 5 to 15 minutes after injection. The test compounds are administered orally (p.o.) or intraperitoneally (i.p.) in suspension in Tween 80 at 0.5%, 60 minutes or 120 minutes before the administration of PBQ. […] For example, compounds 49 and 69 of the table reduce by 43% and 47% respectively, the number of stretches induced by PBQ, at a dose of 10 mg/kg at 120 minutes.
For the molecule `CNC(=O)COC(=O)N1CCN(CCCc2ccc(-c3ccccc3)cc2)CC1` [Compound 49, 2-(methylamino)-2-oxoethyl 4-(3-biphenyl-4-ylpropyl)piperazine-1-carboxylate], the “reduction of the number of stretches induced by PBQ” value amounted to 43%.

With `CNC(=O)COC(=O)N1CCN(CCCc2cc(-c3ccc(Cl)cc3)no2)CC1` [Compound 69, 2-(methylamino)-2-oxoethyl 4-{3-[3-(4-chlorophenyl)isoxazol-5-yl]propyl}piperazine-1-carboxylate], the “reduction of the number of stretches induced by PBQ” value stood at 47%.

System in the next data set: not given
Assay: not given
Conditions: not given
For orientation: melting point means the temperature, or range, at which the solid turns liquid. For the molecule `CNC(=O)COC(=O)N1CCN(C(C)(C)CCc2cccc(-c3ccccc3)c2)CC1` (as salt: HCl) [Compound 50, 2-(methylamino)-2-oxoethyl 4-(3-biphenyl-3-yl-1,1-dimethylpropyl)piperazine-1-carboxylate hydrochloride], the melting point was 212 to 216 °C (dec.).

`CNC(=O)COC(=O)N1CCN(CCc2ccc3ccccc3c2)CC1` [Compound 25, 2-(methylamino)-2-oxoethyl 4-(2-naphthalen-2-ylethyl)piperazine-1-carboxylate] came in with a melting point of 133 to 135 °C.

`CNC(=O)COC(=O)N1CCN(CCc2cc(-c3ccc(Cl)cc3)no2)CC1` [Compound 29, 2-(methylamino)-2-oxoethyl 4-{2-[3-(4-chlorophenyl)isoxazol-5-yl]ethyl}piperazine-1-carboxylate] returned a melting point of 130 to 132 °C.

The molecule `CNC(=O)COC(=O)N1CCN(CCCc2cccc(-c3cccc(Cl)c3)c2)CC1` [Compound 52, 2-(methylamino)-2-oxoethyl 4-[3-(3′-chlorobiphenyl-3-yl)propyl]piperazine-1-carboxylate] returned a melting point of 82 to 85 °C.

`CNC(=O)COC(=O)N1CCN(C/C=C/c2ccccc2)CC1` [Compound 85, 2-(methylamino)-2-oxoethyl trans-4-(3-phenylprop-2-en-1-yl)piperazine-1-carboxylate] had a melting point of 109 to 111 °C.

For the molecule `NC(=O)COC(=O)N1CCCN(CC#Cc2cccc(C(F)(F)F)c2)CC1` [Compound 99, 2-amino-2-oxoethyl 4-{3-[3-(trifluoromethyl)phenyl]prop-2-yn-1-yl}-1,4-diazepane-1-carboxylate], the melting point fell in the range of 102 to 104 °C.

As to `CNC(=O)COC(=O)N1CCN(CCOc2ccc(Cl)cc2)CC1` [Compound 130, 2-(methylamino)-2-oxoethyl 4-{2-[(4-chlorophenyl)oxy]ethyl}piperazine-1-carboxylate], the melting point is 159 to 161 °C.

The values are drawn from US7482346B2, “Derivatives of alkylpiperazine and alkylhomopiperazine-carboxylates, preparation method thereof and use of same as fatty acid amido hydrolase enzyme inhibitors” (Sanofi-Aventis, priority 2004, dated 2009).
